Assays:
Assay in all cases: scanMAX kinase panel
Format in all cases: binding
[1] = molecular target: T1, DDR1 (Homo sapiens, UniProt Q08345); details: read-out: % Control; for remaining binding at 1 µM: 1000 nM
T1 construct: purchased DiscoverX scanMAX
From the text: (§1) Supplemental Table S2. scanMAXSM Kinome Assay Results. Complete tabulated data of all 468 kinases from the panel, including
(§2) 403 wild-type and 65 mutant isoforms. […] Cmpd 11 and Cmpd 24

[2] = molecular target: T2, PIP5K1C (Homo sapiens, UniProt O60331); details: read-out: % Control; for remaining binding at 1 µM: 1000 nM
T2 construct: purchased DiscoverX scanMAX
From the text: as §1, §2

[3] = molecular target: T3, TRKA (Homo sapiens, UniProt P04629); details: read-out: % Control; for remaining binding at 1 µM: 1000 nM
T3 construct: purchased DiscoverX (scanMAX panel)
From the text: as §1, §2

[4] = molecular target: T4, FLT3(D835V) (Homo sapiens, UniProt P36888, D835V); details: read-out: % Control; for remaining binding at 1 µM: 1000 nM
T4 construct: purchased DiscoverX scanMAX
T4 sequence (P36888 27-993 D835V): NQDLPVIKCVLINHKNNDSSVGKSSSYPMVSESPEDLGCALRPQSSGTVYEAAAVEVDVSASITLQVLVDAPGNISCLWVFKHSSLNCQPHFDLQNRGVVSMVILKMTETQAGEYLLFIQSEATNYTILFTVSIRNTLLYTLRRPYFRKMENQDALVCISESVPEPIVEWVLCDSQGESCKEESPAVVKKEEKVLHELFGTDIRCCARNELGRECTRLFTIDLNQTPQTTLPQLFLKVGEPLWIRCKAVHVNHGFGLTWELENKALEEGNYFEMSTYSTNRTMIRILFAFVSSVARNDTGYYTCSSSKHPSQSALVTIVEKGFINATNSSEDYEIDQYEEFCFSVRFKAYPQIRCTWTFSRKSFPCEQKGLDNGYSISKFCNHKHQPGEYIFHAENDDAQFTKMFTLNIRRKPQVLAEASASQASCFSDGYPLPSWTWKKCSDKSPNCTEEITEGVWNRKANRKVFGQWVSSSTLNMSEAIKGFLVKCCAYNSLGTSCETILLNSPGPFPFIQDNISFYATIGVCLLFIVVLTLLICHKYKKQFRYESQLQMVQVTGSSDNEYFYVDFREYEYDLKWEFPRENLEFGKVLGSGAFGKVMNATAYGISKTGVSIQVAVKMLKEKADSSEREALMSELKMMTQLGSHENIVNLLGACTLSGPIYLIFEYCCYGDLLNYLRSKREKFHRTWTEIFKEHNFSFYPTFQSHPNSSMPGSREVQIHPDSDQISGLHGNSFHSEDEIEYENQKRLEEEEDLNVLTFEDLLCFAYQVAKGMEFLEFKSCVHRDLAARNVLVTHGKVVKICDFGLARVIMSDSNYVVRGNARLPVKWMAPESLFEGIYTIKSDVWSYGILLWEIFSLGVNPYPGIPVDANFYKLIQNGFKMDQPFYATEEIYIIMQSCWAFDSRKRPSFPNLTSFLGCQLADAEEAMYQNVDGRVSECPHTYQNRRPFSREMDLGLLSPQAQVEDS
From the text: as §1, §2

[5] = molecular target: T5, TYK2(JH2domain-pseudok.) (Homo sapiens, UniProt P29597); details: read-out: % Control; for remaining binding at 1 µM: 1000 nM
T5 construct: TYK2(JH2domain-pseudok.); purchased DiscoverX (scanMAX panel)
T5 sequence (P29597 589-875 limits assumed): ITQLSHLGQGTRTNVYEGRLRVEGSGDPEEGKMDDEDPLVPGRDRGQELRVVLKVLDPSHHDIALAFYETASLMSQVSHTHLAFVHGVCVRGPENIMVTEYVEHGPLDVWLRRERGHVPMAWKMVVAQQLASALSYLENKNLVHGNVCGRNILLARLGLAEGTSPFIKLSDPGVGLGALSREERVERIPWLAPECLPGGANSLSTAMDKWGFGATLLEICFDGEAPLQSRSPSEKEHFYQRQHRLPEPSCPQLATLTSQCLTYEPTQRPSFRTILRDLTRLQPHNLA
From the text: as §1, §2

[6] = system: FLT3(ITD,F691L)
From the text: as §1, §2

[7] = molecular target: T6, MEK5 (Homo sapiens, UniProt Q13163); details: read-out: % Control; for remaining binding at 1 µM: 1000 nM
T6 construct: purchased DiscoverX scanMAX
T6 sequence (Q13163 1-448): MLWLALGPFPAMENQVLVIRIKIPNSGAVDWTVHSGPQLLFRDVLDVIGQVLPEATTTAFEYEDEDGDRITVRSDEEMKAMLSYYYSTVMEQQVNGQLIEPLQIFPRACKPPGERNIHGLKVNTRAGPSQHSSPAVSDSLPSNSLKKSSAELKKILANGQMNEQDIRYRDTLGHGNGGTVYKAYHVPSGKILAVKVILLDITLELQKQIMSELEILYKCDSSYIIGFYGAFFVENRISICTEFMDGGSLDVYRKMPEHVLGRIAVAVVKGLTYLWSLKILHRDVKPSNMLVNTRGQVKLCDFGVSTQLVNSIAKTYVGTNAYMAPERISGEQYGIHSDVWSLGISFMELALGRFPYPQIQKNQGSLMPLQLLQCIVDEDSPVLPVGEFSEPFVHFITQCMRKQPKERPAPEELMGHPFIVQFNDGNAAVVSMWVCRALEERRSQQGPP
From the text: as §1, §2

[8] = molecular target: T7, PIK3CA(E542K) (Homo sapiens, UniProt P42336, E542K); details: read-out: % Control; for remaining binding at 1 µM: 1000 nM
T7 construct: purchased DiscoverX scanMAX
T7 sequence (P42336 whole entry E542K): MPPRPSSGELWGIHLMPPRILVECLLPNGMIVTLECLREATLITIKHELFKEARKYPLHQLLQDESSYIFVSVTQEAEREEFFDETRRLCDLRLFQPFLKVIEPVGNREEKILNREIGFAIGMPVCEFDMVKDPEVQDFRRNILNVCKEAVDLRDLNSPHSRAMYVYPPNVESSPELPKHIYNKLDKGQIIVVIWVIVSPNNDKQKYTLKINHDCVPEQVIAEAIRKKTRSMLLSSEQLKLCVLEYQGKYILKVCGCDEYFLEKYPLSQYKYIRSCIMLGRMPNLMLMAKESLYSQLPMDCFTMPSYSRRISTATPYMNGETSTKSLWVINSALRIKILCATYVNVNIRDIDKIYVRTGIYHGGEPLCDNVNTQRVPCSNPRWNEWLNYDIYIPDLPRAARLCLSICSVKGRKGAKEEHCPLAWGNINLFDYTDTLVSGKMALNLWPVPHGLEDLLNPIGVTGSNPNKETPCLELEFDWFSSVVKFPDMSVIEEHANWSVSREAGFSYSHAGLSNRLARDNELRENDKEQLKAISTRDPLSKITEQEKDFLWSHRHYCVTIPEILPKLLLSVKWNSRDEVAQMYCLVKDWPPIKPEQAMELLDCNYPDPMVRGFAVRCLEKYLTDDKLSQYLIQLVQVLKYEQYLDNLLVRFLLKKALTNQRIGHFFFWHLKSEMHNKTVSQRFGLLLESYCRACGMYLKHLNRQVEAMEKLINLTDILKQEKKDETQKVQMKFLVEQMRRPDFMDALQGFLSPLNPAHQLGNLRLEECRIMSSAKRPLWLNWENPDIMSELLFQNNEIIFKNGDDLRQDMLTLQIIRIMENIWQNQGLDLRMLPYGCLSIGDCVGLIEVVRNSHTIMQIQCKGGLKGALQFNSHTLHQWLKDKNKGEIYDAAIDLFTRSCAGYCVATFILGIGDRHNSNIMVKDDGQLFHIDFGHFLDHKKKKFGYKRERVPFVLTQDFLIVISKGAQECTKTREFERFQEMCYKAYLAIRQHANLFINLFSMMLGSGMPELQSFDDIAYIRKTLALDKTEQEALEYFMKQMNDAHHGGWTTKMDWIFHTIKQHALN
From the text: as §1, §2

[9] = molecular target: T8, PIK4CB (Homo sapiens, UniProt Q9UBF8); details: read-out: % Control; for remaining binding at 1 µM: 1000 nM
T8 construct: purchased DiscoverX scanMAX
From the text: as §1, §2

[10] = molecular target: T9, LOK (Homo sapiens, UniProt O94804); details: read-out: % Control; for remaining binding at 1 µM: 1000 nM
T9 construct: purchased DiscoverX scanMAX
From the text: as §1, §2

[11] = molecular target: T10, PAK3 (Homo sapiens, UniProt O75914); details: read-out: % Control; for remaining binding at 1 µM: 1000 nM
T10 construct: purchased DiscoverX scanMAX
From the text: as §1, §2

[12] = molecular target: T11, TRKC (Homo sapiens, UniProt Q16288); details: read-out: % Control; for remaining binding at 1 µM: 1000 nM
T11 construct: purchased DiscoverX (scanMAX panel)
From the text: as §1, §2

[13] = molecular target: T12, TIE2 (Homo sapiens, UniProt Q02763); details: read-out: % Control; for remaining binding at 1 µM: 1000 nM
T12 construct: purchased DiscoverX (scanMAX panel)
T12 sequence (Q02763 23-1124): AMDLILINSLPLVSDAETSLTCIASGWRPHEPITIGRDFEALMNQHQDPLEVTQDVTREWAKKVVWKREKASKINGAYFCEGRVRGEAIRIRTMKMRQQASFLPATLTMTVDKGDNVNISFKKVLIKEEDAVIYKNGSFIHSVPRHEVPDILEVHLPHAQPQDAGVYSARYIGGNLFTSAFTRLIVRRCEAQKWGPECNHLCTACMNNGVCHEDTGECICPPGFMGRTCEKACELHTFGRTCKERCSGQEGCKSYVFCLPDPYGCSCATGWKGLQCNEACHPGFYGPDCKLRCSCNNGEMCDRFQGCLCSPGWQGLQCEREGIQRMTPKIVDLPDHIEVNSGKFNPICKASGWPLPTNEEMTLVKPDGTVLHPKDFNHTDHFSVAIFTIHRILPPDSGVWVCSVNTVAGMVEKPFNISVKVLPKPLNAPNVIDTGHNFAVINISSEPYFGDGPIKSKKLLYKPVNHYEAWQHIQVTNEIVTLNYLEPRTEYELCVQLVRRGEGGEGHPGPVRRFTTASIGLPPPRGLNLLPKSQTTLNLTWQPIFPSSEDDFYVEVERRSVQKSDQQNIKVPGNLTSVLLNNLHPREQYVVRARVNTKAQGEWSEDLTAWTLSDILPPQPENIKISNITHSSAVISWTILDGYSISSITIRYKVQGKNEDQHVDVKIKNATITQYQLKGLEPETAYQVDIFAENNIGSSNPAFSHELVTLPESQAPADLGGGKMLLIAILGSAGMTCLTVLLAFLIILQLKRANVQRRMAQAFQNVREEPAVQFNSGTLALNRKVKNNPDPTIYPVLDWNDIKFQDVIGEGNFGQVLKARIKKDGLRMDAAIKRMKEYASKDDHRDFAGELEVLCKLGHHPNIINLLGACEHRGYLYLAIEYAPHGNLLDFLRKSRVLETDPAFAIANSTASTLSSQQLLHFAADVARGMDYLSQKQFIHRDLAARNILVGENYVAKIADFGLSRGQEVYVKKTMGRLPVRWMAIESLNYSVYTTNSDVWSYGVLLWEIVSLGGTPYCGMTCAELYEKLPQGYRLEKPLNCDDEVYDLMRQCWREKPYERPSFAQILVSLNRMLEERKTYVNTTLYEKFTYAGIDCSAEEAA
From the text: as §1, §2

[14] = molecular target: T13, KIT(V559D) (Homo sapiens, UniProt P10721, V559D); details: read-out: % Control; for remaining binding at 1 µM: 1000 nM
T13 construct: purchased DiscoverX scanMAX
From the text: as §1, §2

[15] = molecular target: T14, VRK2 (Homo sapiens, UniProt Q86Y07); details: read-out: % Control; for remaining binding at 1 µM: 1000 nM
T14 construct: purchased DiscoverX (scanMAX panel)
T14 sequence (Q86Y07 whole entry): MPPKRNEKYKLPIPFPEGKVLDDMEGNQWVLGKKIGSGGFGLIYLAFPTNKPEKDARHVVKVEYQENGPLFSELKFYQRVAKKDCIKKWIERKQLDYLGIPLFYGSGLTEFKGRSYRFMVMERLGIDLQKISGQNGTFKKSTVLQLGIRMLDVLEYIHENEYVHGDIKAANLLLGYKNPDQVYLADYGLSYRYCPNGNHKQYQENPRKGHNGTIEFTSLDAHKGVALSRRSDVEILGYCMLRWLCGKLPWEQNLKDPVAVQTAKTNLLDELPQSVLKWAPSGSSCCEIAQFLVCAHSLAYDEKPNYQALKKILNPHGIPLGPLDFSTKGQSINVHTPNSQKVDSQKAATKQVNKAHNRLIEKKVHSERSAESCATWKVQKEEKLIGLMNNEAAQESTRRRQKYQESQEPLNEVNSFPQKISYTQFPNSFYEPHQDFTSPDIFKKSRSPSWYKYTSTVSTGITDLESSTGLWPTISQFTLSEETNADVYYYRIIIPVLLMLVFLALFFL
From the text: as §1, §2

[16] = molecular target: T15, TESK1 (Homo sapiens, UniProt Q15569); details: read-out: % Control; for remaining binding at 1 µM: 1000 nM
T15 construct: purchased DiscoverX (scanMAX panel)
T15 sequence (Q15569 whole entry): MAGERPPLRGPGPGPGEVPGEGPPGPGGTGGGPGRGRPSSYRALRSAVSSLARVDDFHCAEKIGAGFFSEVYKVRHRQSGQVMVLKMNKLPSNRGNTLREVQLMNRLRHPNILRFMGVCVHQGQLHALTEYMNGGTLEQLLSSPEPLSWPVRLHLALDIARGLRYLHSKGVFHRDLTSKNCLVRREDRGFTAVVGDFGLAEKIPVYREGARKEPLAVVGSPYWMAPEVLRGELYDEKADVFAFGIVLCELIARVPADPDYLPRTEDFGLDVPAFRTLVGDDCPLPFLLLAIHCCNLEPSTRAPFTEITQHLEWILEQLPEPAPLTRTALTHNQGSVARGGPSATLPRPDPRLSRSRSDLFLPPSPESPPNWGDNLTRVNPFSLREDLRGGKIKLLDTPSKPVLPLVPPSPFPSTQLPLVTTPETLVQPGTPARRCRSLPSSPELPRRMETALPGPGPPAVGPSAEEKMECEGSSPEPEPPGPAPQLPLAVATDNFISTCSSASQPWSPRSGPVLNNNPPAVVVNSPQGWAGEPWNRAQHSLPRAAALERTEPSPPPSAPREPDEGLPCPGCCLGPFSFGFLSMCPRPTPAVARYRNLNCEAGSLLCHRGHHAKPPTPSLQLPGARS
From the text: as §1, §2

[17] = molecular target: T16, YANK1 (Homo sapiens, UniProt Q8WU08); details: read-out: % Control; for remaining binding at 1 µM: 1000 nM
T16 construct: purchased DiscoverX (scanMAX panel)
From the text: as §1, §2

[18] = molecular target: T17, YANK2 (Homo sapiens, UniProt Q9NY57); details: read-out: % Control; for remaining binding at 1 µM: 1000 nM
T17 construct: purchased DiscoverX (scanMAX panel)
T17 sequence (Q9NY57 whole entry): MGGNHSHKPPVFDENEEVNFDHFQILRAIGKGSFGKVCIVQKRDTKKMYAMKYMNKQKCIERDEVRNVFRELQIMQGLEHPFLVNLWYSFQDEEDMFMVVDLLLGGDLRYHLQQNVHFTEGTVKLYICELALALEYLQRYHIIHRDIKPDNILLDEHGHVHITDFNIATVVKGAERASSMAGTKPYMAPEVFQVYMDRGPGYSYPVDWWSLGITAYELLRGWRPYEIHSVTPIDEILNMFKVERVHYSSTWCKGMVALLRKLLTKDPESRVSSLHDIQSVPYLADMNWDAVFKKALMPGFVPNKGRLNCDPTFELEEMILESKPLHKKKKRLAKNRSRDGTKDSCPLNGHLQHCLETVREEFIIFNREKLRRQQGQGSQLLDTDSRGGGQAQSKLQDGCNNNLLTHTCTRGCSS
From the text: as §1, §2

[19] = molecular target: T18, RIPK2 (Homo sapiens, UniProt O43353); details: read-out: % Control; for remaining binding at 1 µM: 1000 nM
T18 construct: purchased DiscoverX (scanMAX panel)
From the text: as §1, §2

T1 sequence (Q08345 19-913): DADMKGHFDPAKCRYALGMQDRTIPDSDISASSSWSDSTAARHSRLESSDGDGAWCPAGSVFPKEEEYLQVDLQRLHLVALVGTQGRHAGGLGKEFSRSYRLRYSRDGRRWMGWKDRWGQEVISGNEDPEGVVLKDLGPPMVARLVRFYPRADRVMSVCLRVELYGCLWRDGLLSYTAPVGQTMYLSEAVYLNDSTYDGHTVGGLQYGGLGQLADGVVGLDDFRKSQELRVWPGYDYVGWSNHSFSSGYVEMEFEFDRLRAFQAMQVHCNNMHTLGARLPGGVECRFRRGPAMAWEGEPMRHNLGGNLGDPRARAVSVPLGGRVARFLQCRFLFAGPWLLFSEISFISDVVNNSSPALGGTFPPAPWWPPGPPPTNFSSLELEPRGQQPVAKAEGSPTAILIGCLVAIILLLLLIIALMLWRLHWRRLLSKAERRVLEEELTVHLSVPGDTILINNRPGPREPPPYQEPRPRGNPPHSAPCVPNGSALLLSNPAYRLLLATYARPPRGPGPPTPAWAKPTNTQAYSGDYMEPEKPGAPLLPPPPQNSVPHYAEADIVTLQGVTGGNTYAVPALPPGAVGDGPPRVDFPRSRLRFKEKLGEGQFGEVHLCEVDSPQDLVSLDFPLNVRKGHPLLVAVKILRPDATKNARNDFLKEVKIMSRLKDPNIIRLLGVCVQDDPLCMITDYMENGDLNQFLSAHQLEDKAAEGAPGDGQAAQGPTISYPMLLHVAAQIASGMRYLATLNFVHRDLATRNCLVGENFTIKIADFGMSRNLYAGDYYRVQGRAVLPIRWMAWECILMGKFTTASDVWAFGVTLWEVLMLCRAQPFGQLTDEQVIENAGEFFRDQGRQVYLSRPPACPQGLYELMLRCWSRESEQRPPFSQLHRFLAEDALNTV

Cc1cc(NC(=O)[C@H](O)c2cccc(F)c2)ccc1-c1cn(C)c2ncnc(N)c12 [Compound 11, (R)-N-(4-(4-amino-7-methyl-7H-pyrrolo[2,3-d]pyrimidin-5-yl)-3-methylphenyl)-2-(3-fluorophenyl)-2-hydroxy acetamide]
remaining binding at 1 µM [1]: 72%
remaining binding at 1 µM [2]: 99%
remaining binding at 1 µM [3]: 12%
remaining binding at 1 µM [4]: 52%
remaining binding at 1 µM [5]: 80%
% Control ([6]; 1000 nM): 100%
remaining binding at 1 µM [7]: 1.1%
remaining binding at 1 µM [8]: 89%
remaining binding at 1 µM [9]: 84%
remaining binding at 1 µM [10]: 4%
remaining binding at 1 µM [11]: 36%
remaining binding at 1 µM [12]: 9.5%
remaining binding at 1 µM [13]: 14%
remaining binding at 1 µM [14]: 27%
remaining binding at 1 µM [15]: 26%
remaining binding at 1 µM [16]: 15%
remaining binding at 1 µM [17]: 28%
remaining binding at 1 µM [18]: 11%
remaining binding at 1 µM [19]: 15%

Cc1nc(N)c2c(-c3ccc(NC(=O)[C@H](O)c4cccc(F)c4)cc3C)cn(C)c2n1 [Compound 24]
remaining binding at 1 µM [1]: 100%
remaining binding at 1 µM [2]: 34%
remaining binding at 1 µM [3]: 67%
remaining binding at 1 µM [4]: 100%
remaining binding at 1 µM [5]: 79%
% Control ([6]; 1000 nM): 63%
remaining binding at 1 µM [7]: 100%
remaining binding at 1 µM [8]: 0.7%
remaining binding at 1 µM [9]: 28%
remaining binding at 1 µM [10]: 88%
remaining binding at 1 µM [11]: 100%
remaining binding at 1 µM [12]: 79%
remaining binding at 1 µM [13]: 100%
remaining binding at 1 µM [14]: 72%
remaining binding at 1 µM [15]: 100%
remaining binding at 1 µM [16]: 100%
remaining binding at 1 µM [17]: 94%
remaining binding at 1 µM [18]: 100%
remaining binding at 1 µM [19]: 100%

Cc1nc(N)c2c(-c3ccc(NC(=O)[C@H](O)c4cccc(C(F)(F)F)c4)cc3C)cn(C)c2n1 [Compound 26]
remaining binding at 0.1 µM ([1]; 100 nM): 100%
remaining binding at 1 µM [1]: 29%
remaining binding at 0.1 µM ([2]; 100 nM): 100%
remaining binding at 1 µM [2]: 91%
remaining binding at 0.1 µM ([3]; 100 nM): 29%
remaining binding at 1 µM [3]: 3.4%
remaining binding at 0.1 µM ([4]; 100 nM): 100%
remaining binding at 1 µM [4]: 8.5%
remaining binding at 0.1 µM ([5]; 100 nM): 98%
remaining binding at 1 µM [5]: 30%
% Control ([6]; 100 nM): 41%
% Control ([6]; 1000 nM): 42%
remaining binding at 0.1 µM ([7]; 100 nM): 100%
remaining binding at 1 µM [7]: 68%
remaining binding at 0.1 µM ([8]; 100 nM): 100%
remaining binding at 1 µM [8]: 91%
remaining binding at 0.1 µM ([9]; 100 nM): 93%
remaining binding at 1 µM [9]: 4.3%
remaining binding at 0.1 µM ([10]; 100 nM): 94%
remaining binding at 1 µM [10]: 12%
remaining binding at 0.1 µM ([11]; 100 nM): 97%
remaining binding at 1 µM [11]: 31%
remaining binding at 0.1 µM ([12]; 100 nM): 100%
remaining binding at 1 µM [12]: 10%
remaining binding at 0.1 µM ([13]; 100 nM): 100%
remaining binding at 1 µM [13]: 65%
remaining binding at 0.1 µM ([14]; 100 nM): 96%
remaining binding at 1 µM [14]: 0.45%
remaining binding at 0.1 µM ([15]; 100 nM): 94%
remaining binding at 1 µM [15]: 78%
remaining binding at 0.1 µM ([16]; 100 nM): 97%
remaining binding at 1 µM [16]: 99%
remaining binding at 0.1 µM ([17]; 100 nM): 96%
remaining binding at 1 µM [17]: 67%
remaining binding at 0.1 µM ([18]; 100 nM): 92%
remaining binding at 1 µM [18]: 63%
remaining binding at 0.1 µM ([19]; 100 nM): 91%
remaining binding at 1 µM [19]: 43%
